Results on one compound are retold here after patent publication US20230139543A1, “COMPOUNDS FOR USE IN A METHOD OF TREATING, PREVENTING AND/OR REDUCING THE SYMPTOMS OF PAIN” (The Beckley Foundation, priority 2020, published 2023).

“Also recorded” adds a separate entry of the source.

The test system of series [1] is healthy participants. The series is described as follows: Vital signs (heart rate, blood pressure). It counts as in vivo, human. Particulars: single oral dose 20 μg LSD vs placebo; data not shown. The method, then:
(§1) Twenty-four healthy participants (12 male, 12 female) participated in a randomized, double-blind, placebo-controlled, within-subject study in which they received single oral doses of 20 μg LSD (hydrate) and placebo on 4 separate test days. A minimum washout of 5 days proceeded in between to avoid carry-over effects. Treatment orders were randomly assigned to participants according to a balanced block design. LSD was formulated as a solution of 25 μg LSD base in 1 ml 96% ethanol according to GMP and administered orally. LSD doses (0.8 ml for 20 μg LSD) were supplemented with an ethanol solution up to a total volume 1 ml and administered with a syringe under the tongue. Placebo consisted of a 1 ml ethanol solution only. Treatments were administered at 10 AM.
(§2) At 1.5 and 5 hours post treatment, participants conducted a Cold Pressor Test (further described below). The Brief Symptom Inventory and the Clinician Administered Dissociation State Scale (CADSS) were administered prior to treatment administration (baseline) and at the end of a test day, i.e. at 6 hours post dosing. Vital signs were recorded at baseline, every 30 minutes during the first three hours after dosing, and at every hour thereafter. Blood samples were collected at every hour. Participants resided in a secluded room that contained a bed, table and chairs. Standardized lunches were provided around 12 AM.
Heart rate (bpm) and blood pressure (mmHg) were repeatedly assessed using an Omron M6 (HEM-7321-E, Omron Healthcare Europe By) device.
Analyses were carried out by means of the SPSS 25 program series to investigate whether the effects of LSD doses differed from those of placebo. CPT parameters and baseline adjusted parameters of vital signs were analysed using a three factor ANOVA to assess main effects of Treatment, Time after treatment and Participant as well as the interaction Treatment×Time after treatment. Mean contrast (LSD dose versus placebo) tests were conducted for measuring the significance of individual dose effects, relative to placebo. […]

The subject of series [2] is healthy participants. The series is described as follows: Cold Pressor Test (CPT), placebo-controlled trial. It counts as in vivo, human. The following applies: single oral dose 20 μg LSD vs placebo, 1.5 and 5 hours post treatment. How it is done: as §1, §2
The CPT was used to induce a painful sensation according to previously validated procedure (Smeets et al. Psychoneuroend. 2012, 37, 1998-2008). The CPT is the most commonly used test to induce conditioned pain modulation and to evaluate analgesic properties such as pain tolerance in healthy subjects (see, for instance, Okkerse et al. Br J Clin Pharmacol. 2017, 83(5), 976-990; Oaks et al. Discov Med. 2018, 26(144), 197-206). […]
A water tank was filled with water that was cooled to 3° C. […] Dependent measures of the CPT included pain tolerance (sec) and subjective ratings of painfulness, unpleasantness and stress as assessed 10 cm visual analogue scales. Water temperature at onset and completion of the CPT were assessed as control measure.
Analyses were carried out by means of the SPSS 25 program series to investigate whether the effects of LSD doses differed from those of placebo. CPT parameters and baseline adjusted parameters of vital signs were analysed using a three factor ANOVA to assess main effects of Treatment, Time after treatment and Participant as well as the interaction Treatment×Time after treatment. […]

Series [3] can be described thus: Pharmacokinetics: LSD plasma levels by UHPLC-MS/MS. It counts as in vivo. The following applies: both sexes, human, single oral dose 20 μg LSD, read-out: mean (SD) plasma LSD concentration. The method, then: as §1
At 1.5 and 5 hours post treatment, participants conducted a Cold Pressor Test (further described below). […] Vital signs were recorded at baseline, every 30 minutes during the first three hours after dosing, and at every hour thereafter. […]
Blood samples were centrifuged, and plasma was frozen at −20° C. until analysis for pharmacokinetic assessments. LSD plasma levels were analysed by ultra-high-performance liquid chromatography tandem mass spectrometry (UHPLC-MS/MS) as previously described previously. PK Samples with a LSD concentration below […] were re-analysed by a different extraction procedure. […]

As to `CCN(CC)C(=O)[C@@H]1C=C2c3cccc4[nH]cc(c34)C[C@H]2N(C)C1` [LSD, (D)-lysergic acid diethylamide], in the series on healthy participants [1], the diastolic blood pressure result is “slightly increased”, the heart rate result was “not affected” and the systolic blood pressure result was “slightly increased”. Besides, the “stress during the CPT (10 cm visual analogue scale)” value in the series on healthy participants [2] is on record as “did not lead to a significant change; also recorded: not affected”. The “pain tolerance during the CPT” value with healthy participants [2] (p=0.006) was “significant increase; also recorded: significantly increased”. In the series on healthy participants [2] (p=0.008), the “unpleasantness during the CPT (10 cm visual analogue scale)” value is recorded as “significant decrease; also recorded: decreased”. In the series with healthy participants [2] (p=0.012), the “painfulness during the CPT (10 cm visual analogue scale)” value is on record as “significant decrease; also recorded: decreased”. The concentration at 1.5 h in series [3] (1.5 hours after administration) was found to be 0.482 ng/mL. Also, the concentration at 6 h in series [3] (6 hours post treatment) turned out to be 0.223 ng/mL.
